Patent US20220062291A1, “COMPOSITIONS AND METHODS OF TREATING CANCERS BY ADMINISTERING A PHENOTHIAZINE-RELATED DRUG THAT ACTIVATES PROTEIN PHOSPHATASE 2A (PP2A) WITH REDUCED INHIBITORY ACTIVITY TARGETED TO THE DOPAMINE D2 RECEPTOR AND ACCOMPANYING TOXICITY” (DANA-FARBER CANCER INSTITUTE, INC., priority 2018, published 2022)
Read-outs that look alike come from different tables or passages of the source.

What was measured:
KOPT-K1 cells [1] = test: KOPT-K1 cell viability (PrestoBlue), IC50 after 72 hours; type: cell-based, human; settings: for IC50: 72 hours, PrestoBlue, read-out: IC50 value against KOPT-K1 cells
Protocol: (§1) For IC50 calculation, KOPT-K1 cells were treated with each of the compounds at various concentrations for 72 hours, followed by the determination of viable cell numbers with PrestoBlue® cell viability reagent. For the PP2A phosphatase activity assay, KOPT-K1 cells were treated with each of the compounds at 10 μM for 3 hours before phosphatase activity was measured. Dopamine D2 receptor activity was monitored in HEK293T cells coexpressing the dopamine D2 receptor, modified G protein and SRE luciferase reporter. Cells were treated with each of the compound at 10 μM for 3 hours, then lysed for the luciferase reporter assay.
(§2) For IC50 calculations, KOPT-K1 cells were treated with each of the compound at various concentrations for 72 hours, then their viability was examined by PrestoBlue® Cell Viability Reagent (Thermo Fisher Scientific). For PP2A phosphatase activity assay, KOPT-K1 cells were treated with each of the compound at 10 μM for three hours before the activity of PP2A was quantified using PP2A Immunoprecipitation Phosphatase Assay Kit (Merck Millipore®). DRD2 activity was monitored in HEK293T cells expressing DRD2, modified G protein and SRE luciferase reporter. Cells were treated with each of the compounds at 10 μM for three hours, then lysed for luciferase reporter assay. […] The biochemical assays were performed as indicated in Examples 7 and 8.

PP2A [2] = target: T1, PP2A (Homo sapiens, UniProt P30153+P67775+Q16537); test: PP2A phosphatase activity in treated KOPT-K1 cells; type: cell-based; settings: KOPT-K1, 10 μM for 3 hours
T1 construct: are endogenously expressed by KOPTK1 cells; endogenous in cells; host or cells: KOPT-K1 T-ALL cells / lysates
T1 sequence (P30153 2-589): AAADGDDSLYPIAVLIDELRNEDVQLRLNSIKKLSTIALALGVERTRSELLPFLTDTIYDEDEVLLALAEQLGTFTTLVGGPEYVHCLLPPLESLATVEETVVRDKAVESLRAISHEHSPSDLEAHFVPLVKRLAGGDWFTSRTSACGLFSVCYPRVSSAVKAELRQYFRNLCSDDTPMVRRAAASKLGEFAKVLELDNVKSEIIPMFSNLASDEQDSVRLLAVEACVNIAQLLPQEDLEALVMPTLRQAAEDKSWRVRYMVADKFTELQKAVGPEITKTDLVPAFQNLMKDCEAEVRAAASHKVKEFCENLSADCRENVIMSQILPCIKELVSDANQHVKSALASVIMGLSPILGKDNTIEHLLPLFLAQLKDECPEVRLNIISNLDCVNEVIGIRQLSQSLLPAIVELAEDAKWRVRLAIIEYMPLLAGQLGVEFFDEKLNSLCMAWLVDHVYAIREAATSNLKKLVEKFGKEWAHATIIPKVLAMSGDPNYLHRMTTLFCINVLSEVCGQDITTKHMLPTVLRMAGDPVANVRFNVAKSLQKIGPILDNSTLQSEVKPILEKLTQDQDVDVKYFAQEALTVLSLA
T1 sequence (P67775 whole entry): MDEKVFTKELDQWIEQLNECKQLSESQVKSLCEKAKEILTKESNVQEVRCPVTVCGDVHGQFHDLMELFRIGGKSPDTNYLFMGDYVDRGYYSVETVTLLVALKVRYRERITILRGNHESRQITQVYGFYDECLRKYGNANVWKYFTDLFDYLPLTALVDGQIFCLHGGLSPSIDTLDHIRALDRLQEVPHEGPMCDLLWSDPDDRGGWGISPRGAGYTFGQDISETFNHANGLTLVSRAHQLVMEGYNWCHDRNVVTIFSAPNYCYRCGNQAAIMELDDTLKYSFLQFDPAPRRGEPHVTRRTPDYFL
T1 sequence (Q16537 2-467): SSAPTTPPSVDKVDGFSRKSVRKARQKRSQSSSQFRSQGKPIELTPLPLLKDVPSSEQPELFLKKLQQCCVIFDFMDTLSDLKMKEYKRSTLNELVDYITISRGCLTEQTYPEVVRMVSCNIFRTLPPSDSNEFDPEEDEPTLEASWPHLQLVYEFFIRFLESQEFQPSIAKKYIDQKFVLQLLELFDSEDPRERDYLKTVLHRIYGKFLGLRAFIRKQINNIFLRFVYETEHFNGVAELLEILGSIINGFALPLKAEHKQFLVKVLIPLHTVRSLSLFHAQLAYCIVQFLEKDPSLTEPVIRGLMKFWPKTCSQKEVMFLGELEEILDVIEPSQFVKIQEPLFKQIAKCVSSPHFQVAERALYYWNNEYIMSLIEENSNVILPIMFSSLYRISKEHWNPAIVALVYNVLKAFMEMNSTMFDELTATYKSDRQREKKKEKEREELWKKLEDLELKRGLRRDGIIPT
Protocol: (§3) Data are presented as means±s.d. (n=3, biological replicates). KO; knock out. **P<0.01, ***P<0.001 by student's t-test.
as §1
as §2, with “For PP2A phosphatase activity assay, KOPT-K1 cells were treated with each of the compound at 10 μM for three hours before the activity of PP2A was quantified using PP2A Immunoprecipitation Phosphatase Assay Kit (Merck Millipore®).” left out

PP2A [3] = test: PP2A phosphatase activity in treated KOPT-K1 cells; type: cell-based, human; settings: KOPT-K1 cells, 10 μM
Protocol: as §3, §1
as §2, with “For PP2A phosphatase activity assay, KOPT-K1 cells were treated with each of the compound at 10 μM for three hours before the activity of PP2A was quantified using PP2A Immunoprecipitation Phosphatase Assay Kit (Merck Millipore®).” left out

[4] = target: T2, human dopamine receptor D2 (DRD2) (Homo sapiens, UniProt P14416); test: Dopamine receptor D2 inhibition assay (SRE-luciferase reporter in HEK293T cells); type: cell-based; settings: for inhibition of DRD2 signaling: 10 μM for 3 hours
T2 construct: expressed in transfected cells; host or cells: HEK293T (pcDNA3 vectors)
T2 sequence (P14416 whole entry): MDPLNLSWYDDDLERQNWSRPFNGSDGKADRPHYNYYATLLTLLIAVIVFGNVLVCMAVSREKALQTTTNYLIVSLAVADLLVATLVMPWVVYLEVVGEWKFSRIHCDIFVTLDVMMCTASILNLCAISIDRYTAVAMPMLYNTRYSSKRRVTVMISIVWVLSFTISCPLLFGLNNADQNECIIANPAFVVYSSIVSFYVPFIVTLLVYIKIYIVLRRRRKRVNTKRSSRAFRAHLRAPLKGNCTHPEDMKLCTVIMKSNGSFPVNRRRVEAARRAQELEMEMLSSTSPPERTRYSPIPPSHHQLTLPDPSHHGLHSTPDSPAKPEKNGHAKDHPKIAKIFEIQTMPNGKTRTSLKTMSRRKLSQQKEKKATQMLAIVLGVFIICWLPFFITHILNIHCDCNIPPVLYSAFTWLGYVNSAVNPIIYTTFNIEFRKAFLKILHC
Excerpt: (§4) The human dopamine receptor D2 (DRD2) and modified murine Gq5i cDNAs were inserted into pcDNA3 expression vectors. After verifying the PCR products by DNA sequencing, DRD2, Gq5i and the PathDetect pSRE-Luc Cis-Reporter Plasmid (#219080, Agilent Technologies) were transfected to HEK293T cells. As previously reported, Gq5i enables Gi/o-coupled receptor activity to be detected using a serum response element (SRE)-luciferase reporter gene (See, Conklin et al., Nature 363(6426):274-6 (1993); Al-Fulaij et al., J. Pharmacol. Exp. Ther. 321(1):298-307 (2007)). These cells were starved in FCS-free DMEM medium for six hours before incubating them with 2 μM dopamine hydrochloride (Sigma Aldrich) together with each of the compound at 0, 0.5, 1, 2 and 4 μM for three hours. The reporter activity was measured using Pierce™ Firefly Luciferase Glow Assay Kit (Thermo Fisher Scientific).
as §1
as §4, with “D2” for “D2 (DRD2)”, “363(6426):274-276” for “363(6426):274-6”, “0.5” for “0, 0.5, 1, 2 and 4”

KOPT-K1 cells [5] = test: Cell cycle status by PI flow cytometry; type: cell-based, human; settings: 10 μM and 20 μM, 24 hours
Protocol: Relative DNA content of cells in each of the samples was determined by measuring PI (propidium iodide) staining using flow cytometry. The results are illustrated in FIG. 31A-FIG. 31B.
Relative DNA content of cells in each of the samples was determined as described above.

PP2A subunits = test: Co-immunoprecipitation of PP2A subunits (holoenzyme assembly); parameters: species or system human; settings: KOPT-K1 cells, 10 μM, 24 hours
Excerpt: The biochemical activity of iPAP1 was further characterized by addressing whether it acts exclusively on the three identified subunits to mediate the assembly of PP2A, or whether other proteins expressed by T-ALL cells are also required. Using baculovirus vectors, each subunit of PP2A was first expressed with a C-terminal tag in Hi5 insect cells, and then purified the subunit proteins using columns with antibodies against the tags bound to agarose beads (see, Example 5, FIG. 13-FIG. 14). […] PP2A is a unique enzyme consisting of three subunits and it needs to be properly assembled into a holoenzyme before it mediates phosphatase activity. […] The protein lysates were then immunoprecipitated with anti-PPP2CA antibody or normal IgG as a control, and the precipitates were immunoblotted with antibodies specifically detecting each of the PP2A subunits. […] Nuclear and cytoplasmic fractions were separated using NE-PER™ Nuclear and Cytoplasmic Extraction Kit (Thermo Fisher Scientific), and each of the subunits of PP2A was analyzed by western blot. Histone H3 and α tubulin expression levels were used as loading controls for nuclear and cytoplasmic fractions, respectively. […] Lysates were immunoprecipitated using an anti-PPP2CA antibody, and then blotted with antibodies specific for each PP2A subunit. […] The results of a co-immunoprecipitation assay using an anti-PPP2CA antibody for immunoprecipitation in KOPT-K1 cells treated with SMAP at 10 μM or control DMSO for 24 hours before they were lysed for protein extraction are illustrated in FIG. 9B. Lysates were immunoprecipitated using an anti-PPP2CA antibody, and then blotted with antibodies specific for each PP2A subunit.

[6] = tested on: KOPT-K1 cells with PP2A subunit inactivation; test: Drug sensitivity of KOPT-K1 sublines with CRISPR-Cas9 PP2A subunit knockout; type: cell-based, human; settings: SMAP 5 μM, 72 hours
Protocol: Two gRNAs with different target sequences were designed for each subunit (#1 and #2). Control gRNAs target luciferase gene. […] Data are presented as means±s.d. (n=3-5, biological replicates). ***P<0.001 by Student's t-test (FIG. 3A).
SMAP sensitivity in KOPT-K1 cells was measured after PP2A subunit inactivation. Only each subunit of PP2A was knocked out by CRISPR-Cas9 with unique gRNAs. […] Two gRNAs with different target sequences were designed for each subunit (#1 and #2). Control gRNAs target luciferase gene. Data are presented as means±s.d. (n=3-5, biological replicates). ***P<0.001 by Student's t-test (FIG. 3B).
To identify the subunits of PP2A that are essential for the antitumor activity of iPAP1, CRISPR-Cas9 was used to establish a series of sublines of KOPT-K1 T-ALL cells, each lacking one of the 19 specific PP2A subunits (FIG.1A-FIG. 2), and to examine their sensitivity to iPAP1-induced growth inhibition.
With this panel of PP2A subunit knockout cells in hand, we analyzed the PP2A subunits required for growth suppression by SMAPs, another class of allosteric activators of PP2A (Gutierrez et al., J. Clin. Invest. 124:644-655 (2014); Sangodkar et al., J. Clin. Invest. 127:2081-2090 (2017)). […] Both the PPP2R5E and PPP2R2A regulatory subunits of PP2A were among the most highly expressed in a series of 16 different T-ALL cell lines (FIG. 5A). Thus, the assembly of structurally different heterotrimeric PP2A complexes induced with either iPAP1 or SMAP cannot be attributed to imbalances in cellular expression levels of individual PP2A subunits, but likely stems from differences in the allosteric alterations of the A subunit protein resulting from the binding of these two classes of small molecules, which have different chemical structures.

KOPT-K1 cells [7] = test: Microtubule and chromatin staining of cytospins; type: cell-based, human; settings: 0.001 and 0.0001 μM, 24 hours
[8] = target: tubulin from porcine brain (Sus scrofa, UniProt P02550+P02554); test: Fluorescence-based tubulin polymerization assay; settings: 3 μM
tubulin from porcine brain, sequence (P02550 whole entry): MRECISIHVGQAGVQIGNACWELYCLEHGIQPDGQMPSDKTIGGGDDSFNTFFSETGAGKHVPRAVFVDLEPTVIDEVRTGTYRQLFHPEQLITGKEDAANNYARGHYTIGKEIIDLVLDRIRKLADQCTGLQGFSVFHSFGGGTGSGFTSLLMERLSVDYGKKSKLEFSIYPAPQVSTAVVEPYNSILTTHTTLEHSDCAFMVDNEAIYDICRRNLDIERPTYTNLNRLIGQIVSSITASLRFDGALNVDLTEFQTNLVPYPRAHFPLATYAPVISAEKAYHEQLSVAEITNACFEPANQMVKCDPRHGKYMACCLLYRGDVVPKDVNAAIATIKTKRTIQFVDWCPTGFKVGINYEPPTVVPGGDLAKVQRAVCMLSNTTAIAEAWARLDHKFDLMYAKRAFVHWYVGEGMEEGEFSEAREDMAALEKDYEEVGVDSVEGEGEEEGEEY
tubulin from porcine brain, sequence (P02554 whole entry): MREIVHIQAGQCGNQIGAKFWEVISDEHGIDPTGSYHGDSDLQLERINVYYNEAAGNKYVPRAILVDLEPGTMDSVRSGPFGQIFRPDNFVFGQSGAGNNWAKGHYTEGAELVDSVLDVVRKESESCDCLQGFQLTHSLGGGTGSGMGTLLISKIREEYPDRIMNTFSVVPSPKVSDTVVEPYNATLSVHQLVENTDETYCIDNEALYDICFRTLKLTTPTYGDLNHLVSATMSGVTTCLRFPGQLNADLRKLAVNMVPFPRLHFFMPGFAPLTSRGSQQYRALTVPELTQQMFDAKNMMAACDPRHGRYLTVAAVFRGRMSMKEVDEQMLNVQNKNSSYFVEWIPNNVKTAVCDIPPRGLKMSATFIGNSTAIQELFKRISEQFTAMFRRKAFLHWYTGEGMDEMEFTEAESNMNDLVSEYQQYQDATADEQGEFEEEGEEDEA
Protocol: Briefly, free tubulin (2 mg/mL) in buffer supplemented with 1 mM GTP and 15% glycerol was employed. Then, the test compounds were added to tubulin solution and changes in the fluorescence intensity (ex=370 nm, em=445 nm) were measured by kinetic reading at 37° C. using SpectraMax® M5 Microplate reader (Molecular Devices LLC).

[9] = 0.5 μM for three hours with 2 μM dopamine

O=S(=O)(N[C@@H]1CCC[C@H](N2c3ccccc3Oc3ccccc32)[C@H]1O)c1ccc(OC(F)(F)F)cc1 [SMAP, reference compound]
IC50 (KOPT-K1 cells [1]): ~5000 nM | PP2A activation potential (PP2A [2]): much less potent than iPAP1, iPAP2, iPAP3 or iPAP4 in phosphatase activity | phosphatase activity of PP2A relative to basal level (PP2A [3]): up to twice its basal level | inhibitory activities on DRD2 [4, 9]: did not show inhibitory activities on DRD2 | inhibition of DRD2 signaling [4]: lacked DRD2 inhibitory activity | cell cycle status (KOPT-K1 cells [5]): arrested in G0/G1 phase | PP2A subunits co-immunoprecipitated with anti-PPP2CA antibody (PP2A subunits): trimeric complex nucleated by SMAP contains PPP2CA, PPP2R1A and PPP2R2A | PP2A subunits whose knockout gives resistance [6]: resistant to SMAP treatment only when the PPP2R1A, PPP2CA or PPP2R2A subunit was disrupted

O=c1[nH]c2ccccc2n1CCCN1CCC(n2c(=O)[nH]c3cc(Cl)ccc32)CC1 [domperidone, reference compound]
inhibition of DRD2 signaling [4]: strong inhibitors

C=C[C@@]1(C)CC(=O)[C@]2(O)[C@@]3(C)[C@@H](O)CCC(C)(C)[C@@H]3[C@H](O)[C@H](OC(C)=O)[C@@]2(C)O1 [forskolin, reference compound]
inhibition at 0.5 µM ([4]; HEK-293T, 0.5 μM for three hours with 2 μM dopamine): ~30%

COc1ccc(C(=O)N2c3ccccc3Sc3ccc([N+](=O)[O-])cc32)cc1 [iPAP2]
IC50 (KOPT-K1 cells [1]; Homo sapiens, KOPTK1, 72 h): ~1000 nM

COc1ccc(C(=O)N2c3ccccc3Sc3ccc(C#N)cc32)cc1 [iPAP3]
IC50 (KOPT-K1 cells [1]; Homo sapiens, KOPTK1, 72 h): ~300 nM

COc1ccc(C(=O)N2c3ccccc3Sc3cc(C#N)ccc32)cc1 [iPAP4]
IC50 (KOPT-K1 cells [1]): 30 to 40 nM | IC50 (KOPT-K1 cells [1]; Homo sapiens, KOPTK1, 72 h): ~30 nM | IC50 lower than PPZ (KOPT-K1 cells [1]; KOPT-K1, 72 hours): ~100 fold | IC50 lower than iPAP1 (KOPT-K1 cells [1]; KOPT-K1, 72 hours): ~10 fold | PP2A activation potential (PP2A [2]): relatively high PP2A activation potential compared to PPZ | inhibition of DRD2 signaling [4]: very low inhibition of DRD2 signaling

Cc1ccccc1C(=O)N1c2ccccc2Sc2ccc(Cl)cc21 [iPAP5]
inhibitory activities on DRD2 [4, 9]: did not show inhibitory activities on DRD2

CCN1CCCC1CNC(=O)c1cc(S(N)(=O)=O)ccc1OC (stereo not shown) [sulpiride, reference compound]
inhibition of DRD2 signaling [4]: strong inhibitors

CC[C@]1(O)C[C@H]2CN(CCc3c([nH]c4ccccc34)[C@@](C(=O)OC)(c3cc4c(cc3OC)N(C=O)[C@H]3[C@@](O)(C(=O)OC)[C@H](OC(C)=O)[C@]5(CC)C=CCN6CC[C@]43[C@@H]65)C2)C1 [vincristine, reference compound]
mitotic and microtubule phenotype (KOPT-K1 cells [7]): without detectable microtubules | inhibition of tubulin polymerization [8]: markedly inhibited tubulin polymerization
